# Measured values published in patent publication US10934283B2, “COMT inhibiting methods and compositions” (LIEBER INSTITUTE FOR BRAIN DEVELOPMENT, priority 2015, dated 2021).
# Target: T1, catechol-O-methyltransferase (COMT) (Homo sapiens, UniProt P21964)
# T1 construct: M51A variant) was expressed in HEK 293F cells
# T1 sequence (P21964 52-271 limits assumed): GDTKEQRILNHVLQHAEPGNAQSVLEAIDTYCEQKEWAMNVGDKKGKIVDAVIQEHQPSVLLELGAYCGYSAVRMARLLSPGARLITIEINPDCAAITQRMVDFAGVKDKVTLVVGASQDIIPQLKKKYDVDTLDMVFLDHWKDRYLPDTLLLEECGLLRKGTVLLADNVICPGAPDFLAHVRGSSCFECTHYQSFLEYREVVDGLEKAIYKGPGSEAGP
# Experiment: COMT inhibition assay (HTRF, production of SAH from SAM)
# Format: biochemical
# Conditions: table does not say MB-COMT or S-COMT
# Outline: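 Membranes from HEK293F cells expressing MB-COMT (M51A variant) incubated with 20 μM SAM and 1.5 μM dopamine plus compound (10 concentrations) for 40 min at 37 °C; S-COMT (Val158) at 0.15 ng/well used 100 μM dopamine, 15 min. SAH measured by HTRF against a standard curve; pIC50 from 4-parameter logistic fit.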
row,Structure (SMILES),Activity range (pIC50)
1,"O=c1cc2n(cc1O)CCN(C1CC(c3ccccc3)Oc3ccccc31)C2 (stereo not shown) [Example 80, 7-hydroxy-2-(2-phenyl-3,4-dihydro-2H-chromen-4-yl)-1,2,3,4-tetrahydro-8H-pyrido[1,2-a]pyrazin-8-one]",++ (two plus signs (++) is associated with a pIC50 of from about 6 to 7)
2,"CC(c1cccc(F)c1)N1CCn2cc(O)c(=O)cc2C1 (stereo not shown) [Example 81, 2-[1-(3-fluorophenyl)ethyl]-7-hydroxy-1,2,3,4-tetrahydro-8H-pyrido[1,2-a]pyrazin-8-one]",++ (two plus signs (++) is associated with a pIC50 of from about 6 to 7)
3,"O=c1cc2n(cc1O)CCN(C(c1ccccc1)C1CCCC1)C2 (stereo not shown) [Example 82, 2-[cyclopentyl(phenyl)methyl]-7-hydroxy-1,2,3,4-tetrahydro-8H-pyrido[1,2-a]pyrazin-8-one]",+++ (three plus signs (+++) is associated with a pIC50 of above about 7)
4,"COc1cccc(C(C)N2CCn3cc(O)c(=O)cc3C2)c1 (stereo not shown) [Example 83, 7-hydroxy-2-[1-(3-methoxyphenyl)ethyl]-1,2,3,4-tetrahydro-8H-pyrido[1,2-a]pyrazin-8-one]",++ (two plus signs (++) is associated with a pIC50 of from about 6 to 7)
5,"O=c1cc2n(cc1O)CCN(C1CCc3ccccc31)C2 (stereo not shown) [Example 84, 2-(2,3-dihydro-1H-inden-1-yl)-7-hydroxy-1,2,3,4-tetrahydro-8H-pyrido[1,2-a]pyrazin-8-one]",++ (two plus signs (++) is associated with a pIC50 of from about 6 to 7)
6,"CC(c1c(F)ccc(Cl)c1F)N1CCn2cc(O)c(=O)cc2C1 (stereo not shown) [Example 85, 2-[1-(3-chloro-2,6-difluorophenyl)ethyl]-7-hydroxy-1,2,3,4-tetrahydro-8H-pyrido[1,2-a]pyrazin-8-one]",+++ (three plus signs (+++) is associated with a pIC50 of above about 7)
7,"O=c1cc2n(cc1O)CCN(C1CCCCc3ccccc31)C2 (stereo not shown) [Example 86, 7-hydroxy-2-(6,7,8,9-tetrahydro-5H-benzo[7]annulen-5-yl)-1,2,3,4-tetrahydro-8H-pyrido[1,2-a]pyrazin-8-one]",+++ (three plus signs (+++) is associated with a pIC50 of above about 7)
8,"Cc1ccc(C)c(C(C)N2CCn3cc(O)c(=O)cc3C2)c1 (stereo not shown) [Example 87, 2-[1-(2,5-dimethylphenyl)ethyl]-7-hydroxy-1,2,3,4-tetrahydro-8H-pyrido[1,2-a]pyrazin-8-one]",+++ (three plus signs (+++) is associated with a pIC50 of above about 7)
9,"O=c1cc2n(cc1O)CCN(C(Cc1ccccc1)c1ccccc1)C2 (stereo not shown) [Example 88, 2-(1,2-diphenylethyl)-7-hydroxy-1,2,3,4-tetrahydro-8H-pyrido[1,2-a]pyrazin-8-one]",+++ (three plus signs (+++) is associated with a pIC50 of above about 7)
10,"CCC(c1ccccc1)N1CCn2cc(O)c(=O)cc2C1 (stereo not shown) [Example 89, 7-hydroxy-2-(1-phenylpropyl)-1,2,3,4-tetrahydro-8H-pyrido[1,2-a]pyrazin-8-one]",++ (two plus signs (++) is associated with a pIC50 of from about 6 to 7)
11,"O=c1cc2n(cc1O)CCN(C1CCCc3ccccc31)C2 (stereo not shown) [Example 90, 7-hydroxy-2-(1,2,3,4-tetrahydronaphthalen-1-yl)-1,2,3,4-tetrahydro-8H-pyrido[1,2-a]pyrazin-8-one]",+++ (three plus signs (+++) is associated with a pIC50 of above about 7)
12,"COc1ccc2c(c1)C(N1CCn3cc(O)c(=O)cc3C1)CCC2 (stereo not shown) [Example 91, 7-hydroxy-2-(7-methoxy-1,2,3,4-tetrahydronaphthalen-1-yl)-1,2,3,4-tetrahydro-8H-pyrido[1,2-a]pyrazin-8-one]",+++ (three plus signs (+++) is associated with a pIC50 of above about 7)
13,"Cc1cccc2c1CCC2N1CCn2cc(O)c(=O)cc2C1 (stereo not shown) [Example 92, 7-hydroxy-2-(4-methyl-2,3-dihdyro-1H-inden-1-yl)-1,2,3,4-tetrahydro-8H-pyrido[1,2-a]pyrazin-8-one]",+++ (three plus signs (+++) is associated with a pIC50 of above about 7)
14,"CCCC(c1ccccc1)N1CCn2cc(O)c(=O)cc2C1 (stereo not shown) [Example 93, 7-hydroxy-2-(1-phenylbutyl)-1,2,3,4-tetrahydro-8H-pyrido[1,2-a]pyrazin-8-one]",++ (two plus signs (++) is associated with a pIC50 of from about 6 to 7)
15,"CC(c1ccc(C#N)cc1)N1CCn2cc(O)c(=O)cc2C1 (stereo not shown) [Example 94, 4-[1-(7-hydroxy-8-oxo-1,3,4,8-tetrahydro-2H-pyrido[1,2-a]pyrazin-2-yl)ethyl]benzonitrile]",++ (two plus signs (++) is associated with a pIC50 of from about 6 to 7)
16,"CC(c1cccc(C#N)c1)N1CCn2cc(O)c(=O)cc2C1 (stereo not shown) [Example 95, 3-[1-(7-hydroxy-8-oxo-1,3,4,8-tetrahydro-2H-pyrido[1,2-a]pyrazin-2-yl)ethyl]benzonitrile]",++ (two plus signs (++) is associated with a pIC50 of from about 6 to 7)

row,Structure (SMILES),Activity range (pIC50)
1,"CC(=O)Nc1cccc(C(C)N2CCn3cc(O)c(=O)cc3C2)c1 (stereo not shown) [Example 96, N-{3-[1-(7-hydroxy-8-oxo-1,3,4,8-tetrahydro-2H-pyrido[1,2-a]pyrazin-2-yl)ethyl]phenyl}acetamide]",++ (two plus signs (++) is associated with a pIC50 of from about 6 to 7)
2,"CC(c1cc(F)ccc1F)N1CCn2cc(O)c(=O)cc2C1 (stereo not shown) [Example 97, 2-[1-(2,5-difluorophenyl)ethyl]-7-hydroxy-1,2,3,4-tetrahydro-8H-pyrido[1,2-a]pyrazin-8-one]",+++ (three plus signs (+++) is associated with a pIC50 of above about 7)
3,"CC(c1ccccc1F)N1CCn2cc(O)c(=O)cc2C1 (stereo not shown) [Example 98, 2-[1-(2-fluorophenyl)ethyl]-7-hydroxy-1,2,3,4-tetrahydro-8H-pyrido[1,2-a]pyrazin-8-one]",++ (two plus signs (++) is associated with a pIC50 of from about 6 to 7)
4,"CC(c1ccc(F)cc1)N1CCn2cc(O)c(=O)cc2C1 (stereo not shown) [Example 99, 2-[1-(4-fluorophenyl)ethyl]-7-hydroxy-1,2,3,4-tetrahydro-8H-pyrido[1,2-a]pyrazin-8-one]",++ (two plus signs (++) is associated with a pIC50 of from about 6 to 7)
5,"O=c1cc2n(cc1O)CCN(C(CO)c1ccccc1)C2 (stereo not shown) [Example 100, 7-hydroxy-2-(2-hydroxy-1-phenylethyl)-1,2,3,4-tetrahydro-8H-pyrido[1,2-a]pyrazin-8-one]",+ (a single plus (+) is associated with a pIC50 of from about 4.5 to 6)
6,"O=c1cc2n(cc1O)CCN(C(c1ccccc1)C(F)(F)F)C2 (stereo not shown) [Example 101, 7-hydroxy-2-(2,2,2-trifluoro-1-phenylethyl)-1,2,3,4-tetrahydro-8H-pyrido[1,2-a]pyrazin-8-one]",+++ (three plus signs (+++) is associated with a pIC50 of above about 7)
7,"O=c1cc2n(cc1O)CCN(Cc1csc(-c3ccccc3)n1)C2 [Example 102, 7-hydroxy-2-[(2-phenyl-1,3-thiazol-4-yl)methyl]-1,2,3,4-tetrahydro-8H-pyrido[1,2-a]pyrazin-8-one]",++ (two plus signs (++) is associated with a pIC50 of from about 6 to 7)
8,"Cc1nn(-c2ccccc2)c(C)c1CN1CCn2cc(O)c(=O)cc2C1 [Example 103, 2-[(3,5-dimethyl-1-phenyl-1H-pyrazol-4-yl)methyl]-7-hydroxy-1,2,3,4-tetrahydro-8H-pyrido[1,2-a]pyrazin-8-one]",++ (two plus signs (++) is associated with a pIC50 of from about 6 to 7)
9,"O=c1cc2n(cc1O)CCN(C1(c3ccccc3)CC1)C2 [Example 104, 7-hydroxy-2-(1-phenylcyclopropyl)-3,4-dihydro-1H-pyrido[1,2-a]pyrazin-8-one]",+++ (three plus signs (+++) is associated with a pIC50 of above about 7)
10,"O=c1cc2n(cc1O)CCN(C(CF)c1ccccc1)C2 (stereo not shown) [Example 105, 2-(2-fluoro-1-phenyl-ethyl)-7-hydroxy-3,4-dihydro-1H-pyrido[1,2-a]pyrazin-8-one]",+++ (three plus signs (+++) is associated with a pIC50 of above about 7)
11,"O=c1cc2n(cc1O)CCN(C1(c3ccccc3Cl)CC1)C2 [Example 106, 2-[1-(2-chlorophenyl)cyclopropyl]-7-hydroxy-3,4-dihydro-1H-pyrido[1,2-a]pyrazin-8-one]",+++ (three plus signs (+++) is associated with a pIC50 of above about 7)
12,"O=c1cc2n(cc1O)CCN(C(c1ccccc1)C(F)F)C2 (stereo not shown) [Example 107, 2-(2,2-difluoro-1-phenyl-ethyl)-7-hydroxy-3,4-dihydro-1H-pyrido[1,2-a]pyrazin-8-one]",+++ (three plus signs (+++) is associated with a pIC50 of above about 7)
13,"O=c1cc2n(cc1O)CCN(c1nc3ccccc3s1)C2 [Example 108, 2-(1,3-benzothiazol-2-yl)-7-hydroxy-3,4-dihydro-1H-pyrido[1,2-a]pyrazin-8-one]",++ (two plus signs (++) is associated with a pIC50 of from about 6 to 7)
14,"O=c1cc2n(cc1O)CCN(C1CC1c1ccccc1)C2 (stereo not shown) [Example 109, 7-hydroxy-2-(2-phenylcyclopropyl)-3,4-dihydro-1H-pyrido[1,2-a]pyrazin-8-one]",++ (two plus signs (++) is associated with a pIC50 of from about 6 to 7)
15,"O=c1cc2n(cc1O)CCN(c1cccc3ncccc13)C2 [Example 110, 7-hydroxy-2-(5-quinolyl)-3,4-dihydro-1H-pyrido[1,2-a]pyrazin-8-one]",+ (a single plus (+) is associated with a pIC50 of from about 4.5 to 6)
